Source: US20080262053A1 (priority 2005, published 2008)

What was measured:
[1] = system: patients with idiopathic RLS; conditions: continuous treatment over 6 months or more
Description: The severity of the symptoms was determined by means of the difference between the time of randomisation after 6 months and the results after the end of the trial, according to the international RLS scale. The results of 147 patients were evaluated.

[2] = system: patients suffering from moderate to severe RLS
Excerpt: The expression moderate to severe RLS is used when patients reach a points score of >15 on the international RLS scale. The scale runs from 0 (no RLS symptoms) to 40 (severest form of RLS). Thus, in moderate to severe RLS, the symptoms usually occur more than twice a week.

[3] = system: RLS; conditions: open trials

## CCCNC1CCc2nc(N)sc2C1.Cl.Cl (stereo not drawn) [pramipexole, 2-amino-6-n-propylamino-4,5,6,7-tetrahydrobenzo-thiazole dihydrochloride]
[1]
  effect of continuous treatment on RLS symptoms: lasting improvement in the RLS symptoms
[2]; after only one week of treatment
  patient-reported improvement in symptoms (quality of sleep, restlessness of the legs, etc.): significant improvements in all areas of symptoms
[2]; majority of treated patients
  subjective impression of treated patients: great or very great improvement
[2]; patients with moderate to severe RLS (>15 points on international RLS scale)
  improvement in the RLS symptoms: rapid improvement in the RLS symptoms
[2]; pramipexole administered continuously
  duration of improvement in the symptoms in RLS patients (lasting effect): at least 6 months
[3]
  persistence of lasting clinical effects: ≥ 12 months
